Experimental findings from EP0509845A1, “(+) and (-) enantiomers of 5-aliphatic-6-(benzoxazinyl- or benzothiazinyl)-2,3,4,5-tetrahydropyridazin-3-ones” (ORTHO PHARMACEUTICAL CORPORATION, priority 1991, dated 1992) are described below.

The subject of assay [1] is adult mongrel dogs. Put plainly: Cardiotonic activity, racemate testing in anesthetized dogs. It is filed as in vivo. Here is the method: The cardiotonic activity of the compounds was determined in accordance with the method of Alousi, A. A., et al., J. Cir. Res., 45, 666 (l979). Basically, adult mongrel dogs were anesthetized with sodium pentobarbital and artifically respired. Arterial pressure was recorded via a femoral artery and the pressure pulse used to trigger a cardiotachometer for heart rate. Left ventricular pressure was measured with a Millar catheter and dP/dt was derived. Cardiac output was determined by measuring ascending aortic blood flow with an electromagnetic flow probe and myocardial contractile force was measured with a Walton Brodie strain gauge sutured to the right ventricle. Lead II EKG was also recorded. A standard dose of dopamine was administered to assess myocardial responsiveness. Test compounds were administered by i.v. infusion or bolus administration and the effects on cardiovascular parameters were determined. Dose-related effects of the test compound on BP, HR, dP/dt max., C.F. and C.O. were compared to pretreatment control values and expressed as a percentage change.

The target in assay [2] is T1, canine cardiac cyclic nucleotide phosphodiesterase (PDE) fraction III (Canis lupus familiaris, UniProt A0A8I3NYE0).
T1 construct: The fraction III isoenzyme was pooled and dialyzed; from tissue; host or cells: canine heart, soluble supernatant, DEAE cellulose fraction III (800 mM sodium acetate eluate)
T1 sequence (A0A8I3NYE0 1-1135): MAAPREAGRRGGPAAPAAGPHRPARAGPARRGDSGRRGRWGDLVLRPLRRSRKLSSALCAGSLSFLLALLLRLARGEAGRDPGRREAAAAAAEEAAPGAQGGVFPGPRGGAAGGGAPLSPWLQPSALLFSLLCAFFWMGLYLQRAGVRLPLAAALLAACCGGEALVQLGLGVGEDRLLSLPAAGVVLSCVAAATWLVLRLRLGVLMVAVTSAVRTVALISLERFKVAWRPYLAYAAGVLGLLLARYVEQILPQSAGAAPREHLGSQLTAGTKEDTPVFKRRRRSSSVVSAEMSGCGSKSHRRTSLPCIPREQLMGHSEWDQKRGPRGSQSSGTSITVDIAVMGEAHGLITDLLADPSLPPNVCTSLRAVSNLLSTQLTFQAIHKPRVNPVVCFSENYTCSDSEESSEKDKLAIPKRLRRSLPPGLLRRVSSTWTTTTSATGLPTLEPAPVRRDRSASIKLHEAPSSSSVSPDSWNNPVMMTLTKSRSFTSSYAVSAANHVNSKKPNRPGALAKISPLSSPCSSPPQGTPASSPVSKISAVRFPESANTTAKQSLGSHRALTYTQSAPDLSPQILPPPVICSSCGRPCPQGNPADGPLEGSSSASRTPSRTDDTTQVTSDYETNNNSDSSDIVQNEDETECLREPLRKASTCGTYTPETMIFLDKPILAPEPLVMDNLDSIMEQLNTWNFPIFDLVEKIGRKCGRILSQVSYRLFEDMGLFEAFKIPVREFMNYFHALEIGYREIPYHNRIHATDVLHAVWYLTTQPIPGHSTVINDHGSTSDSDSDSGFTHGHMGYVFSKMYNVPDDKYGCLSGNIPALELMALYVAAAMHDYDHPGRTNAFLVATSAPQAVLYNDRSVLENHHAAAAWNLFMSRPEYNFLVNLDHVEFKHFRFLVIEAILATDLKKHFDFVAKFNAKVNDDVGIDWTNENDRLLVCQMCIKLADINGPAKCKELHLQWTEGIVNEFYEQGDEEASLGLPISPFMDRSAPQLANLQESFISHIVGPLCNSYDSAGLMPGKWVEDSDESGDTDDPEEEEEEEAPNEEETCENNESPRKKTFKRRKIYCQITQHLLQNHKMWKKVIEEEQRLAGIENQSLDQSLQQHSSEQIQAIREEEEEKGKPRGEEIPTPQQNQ
Put plainly: Cyclic AMP phosphodiesterase assay with fraction III isoenzyme, comparative testing. It is filed as biochemical.

The subject of assay [3] is human platelet aggregation. The experiment in a line: Platelet aggregation in vitro in platelet rich plasma. It is filed as cell-based. Conditions: Homo sapiens, Platelet, human PRP. Here is the method:
The racemate and enantiomeric Bemoradan were tested for their effects in vitro on human platelet aggregation. Platelet rich plasma (PRP) was prepared from human donors who were free of aspirin for the preceding week. Venous blood was collected in sodium citrate vacutainer tubes and PRP was obtained by centrifuging the blood at l000 rpm for 5 min. Compounds were dissolved in methanol and added to 480 µl of PRP in a Chrono-log dual channel aggregometer l min prior to aggregant. Serotonin at 5 µM or ADP at 2 µM were the aggregating agents.

Assay [4] concerns adult mongrel dogs. The experiment in a line: Comparative racemate and enantiomer hemodynamic testing in pentobarbital anesthetized open-chest dogs. It is filed as in vivo. Conditions: dogs. Here is the method: Adult mongrel dogs weighing approximately l0-l4 kg were anesthetized with sodium pentobarbital (35 mg/kg, i.p.) and artificially respired. A femoral artery was cannulated to measure mean arterial pressure (MAP) and a femoral vein was cannulated for administering compounds. A Millar microtip pressure transducer was placed in the left ventricle via the left carotid artery to measure left ventricular end diastolic pressure (EDP). pressure pulses triggered a cardiotachometer for determination of heart rate (HR) while the left ventricular pressure waveform was differentiated using a Gould differentiating amplifier to yield dP/dtmax, an index of contractility. A right thoractomy was performed at the fourth intercostal space and the pericardial sac was opened. An externally calibrated Walton-Brodie strain gauge arch was sutured to the right ventricular free wall and stretched to produce a baseline force of approximately l00g. Subsequent changes in right ventricular contractile force (CF) were measured from this baseline. A Carolina electromagnetic flow probe was placed on the ascending aorta to estimate cardiac output (CO). A flexible fluid-filled catheter was inserted into the tip of the right atrium to measure right atrial pressure (RAP). Needle electrodes were placed in the appropriate limbs to record a lead II electrocardiogram (ECG). The following formulas were used to calculate derived parameters: Stroke volume (SV) = CO/HR x l000 Stroke work (SW) = ([…]) x SV Total peripheral resistance (TPR) = (MAP-EDP)/CO
Following surgery and stabilization of hemodynamic parameters, an i.v. infusion of dopamine (l0-l5 µg/kg/min for 3 min) was administered with a Harvard infusion pump to assess responsiveness to positive inotropic stimulation. Baseline hemodynamic values were obtained immediately prior to drug infusion. Responses were continuously monitored on a recorder (Gould 2800) and data collection was facilitated by the use of a Buxco cardiovascular analyzer and data logger.
In the comparative testing a stock solution of each enantiomer (l mg/ml) was prepared fresh daily and diluted before use. Compounds were dissolved in a small volume of dimethylformamide (DMF) and diluted with saline for a final concentration of l5% DMF. Further dilutions were made with a l5% DMF solution.
In the comparative testing each compound was administered in cumulative doses to separate dogs. Data were obtained at the end of each dose. (±) Bemoradan and (+) Bemordan were infused at cumulative doses of 5, l5, 35 and 75 µg/kg, administered with a Harvard infusion pump for 5 minutes each at rates of 0.56, l.l, 2.2, and […], respectively. (-) Bemoradan was given at doses of 5, l5 and 35 µg/kg following the same protocol. The high dose of the (-) isomer was not administered as a means of conserving compound.
Hemodynamic results were expressed as the percent change from pre-drug baseline values and compared using a Dunnett's test with a criterion for significance of p < 0.05. Contractile force ED₄₀ values (i.e., the dose which increased contractile force by 40%) were calculated from dose-response regression lines.

Assay [5] deals with T2, cyclic nucleotide phosphodiesterase (Canis lupus familiaris, UniProt A0A8I3NYE0).
T2 sequence (A0A8I3NYE0 1-1135): T1 sequence (A0A8I3NYE0 1-1135)
Put plainly: Phosphodiesterase inhibitory activity, racemate testing. It counts as biochemical. Conditions: read-out: IC50 (Micromolar concentration for 50% inhibition of cyclic nucleotide activity); cyclic AMP as substrate, Tris-Cl buffer pH 7.4.

Read-outs that look alike come from different tables or passages of the source.

As to “6-(3,4-Dihydro-3-oxo-l,4[2H]-benzothiazin-7-yl)-2,3,4,5-tetrahydro-5-methylpyridazin-3-one [Example 56]”, the “CF (Percent increase in cardiac force)” value in the assay on adult mongrel dogs [1] (I.V. dose 0.027 mpk) turned out to be 32%.

Regarding `CC1CC(=O)NN=C1c1ccc2c(c1)OCC(=O)N2` (racemic) [Example 46, 6-(3,4-Dihydro-3-oxo-l,4(2H)-benzoxazin-7-yl)-2,3,4,5-tetrahydro-5-methylpyridazin-3-one], the IC50 in assay [2] (Table I summary, canine cardiac PDE fraction III, read-out: PDE III inhibition (IC50)) worked out at 710 nM; in assay [2] (canine heart fraction III, 0.1 µM cyclic AMP, read-out: PDE III IC50), 710 nM; in assay [3] (ADP at 2 µM, read-out: Antiaggregatory IC50 (µM) vs. ADP) it was 0.65 µM; in assay [3] (Serotonin at 5 µM, read-out: Antiaggregatory IC50 (µM) vs. 5-HT) it was 0.4 µM; in assay [3] (Table I summary, ADP at 2 µM as aggregant, read-out: Platelet aggregation (IC50) vs. ADP) it was 0.65 µM; in assay [3] (Table I summary, serotonin at 5 µM as aggregant, read-out: Platelet aggregation (IC50) vs. 5-HT (serotonin)), 0.4 µM. Also, in the assay with adult mongrel dogs [4] (Canis lupus familiaris, iv, Table I summary, dose increasing contractile force by 40%, i.v., read-out: In vivo inotropic ED40, i.v.), the ED40 worked out at 4.4 µg/kg. Besides, in the assay with adult mongrel dogs [4] (dose causing a 40% increase in contractility above baseline, from dose-response regression lines, i.v. infusion), the “CF ED40 (µg/kg) with 95% F.L.” value was 4.4 (3.9 - 4.9) µg/kg.

On to `COC(=O)CC(C)C(=O)c1ccc2c(c1)SCC(=O)N2C` (stereo not drawn) [Example 53, Methyl 4-(3,4-dihydro-4-methyl-3-oxo-l,4[2H]-benzothiazin-7-yl)-3-methyl-4-oxobutyrate], for which the IC50 in assay [5] is 25000 nM. Besides, the “CF (Percent increase in cardiac force)” value in the assay on adult mongrel dogs [1] (I.V. dose 0.075 mpk) worked out at 21%.

On to `O=C1CCC(c2ccc3c(c2)NC(=O)CS3)=NN1` [Example 54, 6-(3,4-Dihydro-3-oxo-l,4[2H]-benzothiazin-6-yl)-2,3,4,5-tetrahydropyridazin-3-one], for which the IC50 in assay [5] worked out at 22000 nM. In addition, in the assay on adult mongrel dogs [1] (I.V. dose 0.075 mpk), the “CF (Percent increase in cardiac force)” value stood at 11%.

Regarding `CN1C(=O)CSc2ccc(C3=NNC(=O)CC3)cc21` [Example 55, 6-(3,4-Dihydro-4-methyl-3-oxo-l,4[2H]-benzothiazin-6-yl)-2,3,4,5-tetrahydropyridazin-3-one], the IC50 in assay [5] was less than 100 nM. Further, the “CF (Percent increase in cardiac force)” value with adult mongrel dogs [1] (I.V. dose 0.035 mpk) was 160%.
